ChEMBL document CHEMBL1773066, “Design, synthesis, biological activity, and ADME properties of pyrazolo[3,4-d]pyrimidines active in hypoxic human leukemia cells: a lead optimization study” (J Med Chem, 2011)
pIC50, pKi: −log10 of the molar value. In brackets after ≈: the same amount, converted by molar mass. Activity calls are given as the source filed them. The calls are words filed in the database; no cut-off is given here.

Experiments:
K562 [1] = test: Induction of apoptosis in human K562 cells assessed as caspase-3 activity at 10 uM under normoxic condition after 72 hrs by fluorescence microplate reader; type: functional, cell-based
K562 [2] = test: Induction of apoptosis in human K562 cells assessed as caspase-3 activity at 10 uM under hypoxic condition after 72 hrs by fluorescence microplate reader; type: functional, cell-based
K562 [3] = test: Induction of apoptosis in human K562 cells assessed as caspase-3 mediated cleavage of PARP level at 10 uM after 72 hrs under hypoxic condition by immunoblot analysis; type: functional, cell-based
[4] = Solubility of the compound in water at pH 7.4; type: physicochemical
[5] = Metabolic stability in human liver microsomes assessed as parent compound remaining after 60 mins by LC-MS analysis; type: ADME, Microsome; conditions: read-out: Stability
[6] = Cytotoxicity against mouse BA/F3 cells expressing p210Bcr-Abl E255K mutant; type: functional; conditions: BaF3, read-out: LD50 (the source's name)
[7] = Cytotoxicity against mouse BA/F3 cells expressing p210Bcr-Abl Y253F mutant; type: functional; conditions: BaF3, read-out: LD50 (the source's name)
[8] = Cytotoxicity against mouse BA/F3 cells expressing p210Bcr-Abl T315I mutant; type: functional; conditions: BaF3, read-out: LD50 (the source's name)
[9] = molecular target: T1, Signal transducer and activator of transcription 5A (Homo sapiens) (UniProt P42229); test: Inhibition of STAT5 phosphorylation in human MEG-01 cells under normoxic condition after 3 hrs by Western blotting; type: cell-based
T1 sequence (whole entry): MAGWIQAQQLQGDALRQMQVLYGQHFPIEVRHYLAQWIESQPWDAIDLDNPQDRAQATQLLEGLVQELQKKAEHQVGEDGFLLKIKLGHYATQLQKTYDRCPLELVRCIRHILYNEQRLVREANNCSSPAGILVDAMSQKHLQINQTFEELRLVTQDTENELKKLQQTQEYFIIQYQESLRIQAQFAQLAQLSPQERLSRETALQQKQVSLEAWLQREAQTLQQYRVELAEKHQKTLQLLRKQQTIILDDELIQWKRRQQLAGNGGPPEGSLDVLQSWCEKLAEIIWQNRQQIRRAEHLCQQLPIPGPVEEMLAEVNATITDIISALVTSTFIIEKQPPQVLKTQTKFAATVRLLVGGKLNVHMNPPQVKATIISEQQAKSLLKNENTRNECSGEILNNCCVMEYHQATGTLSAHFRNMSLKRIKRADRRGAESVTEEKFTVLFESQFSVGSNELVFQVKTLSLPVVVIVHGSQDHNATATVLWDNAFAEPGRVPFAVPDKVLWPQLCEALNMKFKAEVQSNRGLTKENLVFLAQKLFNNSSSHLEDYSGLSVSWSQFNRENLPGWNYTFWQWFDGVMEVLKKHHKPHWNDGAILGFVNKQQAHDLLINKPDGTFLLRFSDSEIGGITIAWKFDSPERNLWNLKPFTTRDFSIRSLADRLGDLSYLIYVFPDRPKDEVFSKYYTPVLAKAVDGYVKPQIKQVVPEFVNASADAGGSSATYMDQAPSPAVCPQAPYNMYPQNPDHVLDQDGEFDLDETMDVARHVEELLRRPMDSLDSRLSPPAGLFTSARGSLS

[10] = molecular target: T1, Signal transducer and activator of transcription 5A (Homo sapiens); test: Inhibition of STAT5 phosphorylation in human MEG-01 cells under hypoxic condition after 3 hrs by Western blotting; type: cell-based
[11] = molecular target: T1, Signal transducer and activator of transcription 5A (Homo sapiens); test: Inhibition of STAT5 phosphorylation in human KU812 cells under normoxic condition after 3 hrs by Western blotting; type: cell-based
[12] = molecular target: T1, Signal transducer and activator of transcription 5A (Homo sapiens); test: Inhibition of STAT5 phosphorylation in human KU812 cells under hypoxic condition after 3 hrs by Western blotting; type: cell-based
[13] = Cytotoxicity against mouse BA/F3 cells expressing wild type p210Bcr-Abl; type: functional; conditions: BaF3, read-out: LD50 (the source's name)
K562 [14] = test: Induction of HIF1alpha expression in human K562 cells under hypoxic condition assessed as HIF1alpha accumulation after 3 hrs by Western blotting; type: functional, cell-based
[15] = molecular target: T1, Signal transducer and activator of transcription 5A (Homo sapiens); test: Inhibition of STAT5 phosphorylation in human K562 cells under normoxic condition after 3 hrs by Western blotting; type: cell-based
[16] = molecular target: T1, Signal transducer and activator of transcription 5A (Homo sapiens); test: Inhibition of STAT5 phosphorylation in human K562 cells under hypoxic condition after 3 hrs by Western blotting; type: cell-based
K562 [17] = test: cells; conditions: Homo sapiens, K562, 72 h
Description: Antiproliferative activity against human K562 cells under normoxic condition after 72 hrs by using CyQUANT GR dye

MEG-01 [18] = test: cells; conditions: Homo sapiens, MEG-01, 72 h
Description: Antiproliferative activity against human MEG01 cells under normoxic condition after 72 hrs by using CyQUANT GR dye

cells [19] = conditions: Homo sapiens, KU812, 72 h
Description: Antiproliferative activity against human KU812 cells under normoxic condition after 72 hrs by using CyQUANT GR dye

K562 [20] = test: cells; conditions: Homo sapiens, K562, 72 h; remark: listed apart in the source
Description: Antiproliferative activity against human K562 cells under hypoxic condition after 72 hrs by using CyQUANT GR dye

MEG-01 [21] = test: cells; conditions: Homo sapiens, MEG-01, 72 h; remark: listed apart in the source
Description: Antiproliferative activity against human MEG01 cells under hypoxic condition after 72 hrs by using CyQUANT GR dye

cells [22] = conditions: Homo sapiens, KU812, 72 h; remark: listed apart in the source
Description: Antiproliferative activity against human KU812 cells under hypoxic condition after 72 hrs by using CyQUANT GR dye

[23] = Apparent permeability of the compound at pH 7.4 by PAMPA assay; type: ADME
[24] = molecular target: T2, Proto-oncogene tyrosine-protein kinase Src (Homo sapiens, UniProt P12931)
Description: (§1) Inhibition of human recombinant c-Src by filter-binding assay

[25] = molecular target: Tyrosine-protein kinase ABL1 (Homo sapiens, UniProt P00519)
Description: Inhibition of human recombinant c-Abl by filter-binding assay

[26] = molecular target: T2, Proto-oncogene tyrosine-protein kinase Src; remark: listed apart in the source
Description: as §1

K562 [27] = test: Inhibition of carbonic anhydrase 9 mRNA expression in human K562 cells under normoxic condition at 10 uM after 72 hrs by quantitative RT-PCR analysis; type: functional, cell-based
K562 [28] = test: Inhibition of carbonic anhydrase 9 mRNA expression in human K562 cells under hypoxic condition at 10 uM after 72 hrs by quantitative RT-PCR analysis; type: functional, cell-based

Chain of Tyrosine-protein kinase ABL1 (P00519 whole entry): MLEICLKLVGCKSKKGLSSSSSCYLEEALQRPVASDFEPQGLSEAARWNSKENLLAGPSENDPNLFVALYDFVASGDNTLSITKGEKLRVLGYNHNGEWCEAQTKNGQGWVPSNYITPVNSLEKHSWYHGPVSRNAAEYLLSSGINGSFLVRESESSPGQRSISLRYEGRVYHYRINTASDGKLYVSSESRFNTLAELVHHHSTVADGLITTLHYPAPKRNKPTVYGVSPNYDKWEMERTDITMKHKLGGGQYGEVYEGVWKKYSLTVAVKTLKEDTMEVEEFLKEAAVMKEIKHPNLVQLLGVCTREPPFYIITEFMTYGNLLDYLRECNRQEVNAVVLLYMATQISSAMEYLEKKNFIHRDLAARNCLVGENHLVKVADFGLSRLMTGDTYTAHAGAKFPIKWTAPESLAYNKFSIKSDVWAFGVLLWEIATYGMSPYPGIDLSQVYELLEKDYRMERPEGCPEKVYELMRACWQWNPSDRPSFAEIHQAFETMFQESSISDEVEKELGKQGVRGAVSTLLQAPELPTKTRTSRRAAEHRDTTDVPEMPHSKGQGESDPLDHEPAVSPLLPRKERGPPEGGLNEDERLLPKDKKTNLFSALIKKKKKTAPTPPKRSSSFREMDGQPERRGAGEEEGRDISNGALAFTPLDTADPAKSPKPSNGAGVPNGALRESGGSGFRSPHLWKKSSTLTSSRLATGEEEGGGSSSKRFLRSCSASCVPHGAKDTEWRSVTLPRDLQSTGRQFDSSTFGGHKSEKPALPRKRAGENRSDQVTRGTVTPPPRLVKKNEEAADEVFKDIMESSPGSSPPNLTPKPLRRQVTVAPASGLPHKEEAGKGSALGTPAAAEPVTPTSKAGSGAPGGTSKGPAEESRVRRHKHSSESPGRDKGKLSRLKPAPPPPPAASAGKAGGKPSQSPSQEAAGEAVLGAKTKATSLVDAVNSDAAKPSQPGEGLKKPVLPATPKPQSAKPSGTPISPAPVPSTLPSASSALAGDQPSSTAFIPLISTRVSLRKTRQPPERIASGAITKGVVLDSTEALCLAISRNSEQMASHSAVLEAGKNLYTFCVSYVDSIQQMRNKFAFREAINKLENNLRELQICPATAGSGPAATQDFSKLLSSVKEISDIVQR
T2 sequence (P12931 2-536 limits assumed): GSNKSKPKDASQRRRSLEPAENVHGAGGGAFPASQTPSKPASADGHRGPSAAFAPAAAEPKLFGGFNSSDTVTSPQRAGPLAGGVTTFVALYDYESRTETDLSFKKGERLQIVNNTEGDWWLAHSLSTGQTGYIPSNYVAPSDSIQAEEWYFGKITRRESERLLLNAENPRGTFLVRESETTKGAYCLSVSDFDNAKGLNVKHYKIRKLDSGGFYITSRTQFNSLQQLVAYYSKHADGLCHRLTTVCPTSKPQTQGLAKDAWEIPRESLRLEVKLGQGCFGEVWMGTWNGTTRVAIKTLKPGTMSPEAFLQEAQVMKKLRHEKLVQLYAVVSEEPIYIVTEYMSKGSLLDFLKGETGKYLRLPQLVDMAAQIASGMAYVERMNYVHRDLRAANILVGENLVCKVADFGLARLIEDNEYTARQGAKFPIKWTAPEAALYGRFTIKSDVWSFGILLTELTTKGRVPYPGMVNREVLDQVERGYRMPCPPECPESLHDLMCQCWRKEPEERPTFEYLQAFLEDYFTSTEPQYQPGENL

Compound: Fc1ccc(CNc2ncnc3c2cnn3CC(Cl)c2ccc(Cl)cc2)cc1 (stereo not drawn)
- Activity (K562 [1]): Active
- Activity (K562 [2]): Active
- Activity (K562 [3]): Active
- solubility [4]: < 0.04 µg/mL
- remaining at 1 h [5]: 94%
- CC50 [6]: 0.7 µM
- CC50 [7]: 0.7 µM
- CC50 [8]: 0.7 µM
- inhibition [9]: Active
- inhibition [10]: Active
- inhibition [11]: Active
- inhibition [12]: Active
- CC50 [13]: 0.7 µM
- Activity (K562 [14]): inactive
- inhibition [15]: Active
- inhibition [16]: Active
- pIC50 (K562 [17]): 5.04
- pIC50 (MEG-01 [18]): 5.21
- pIC50 (cells [19]): 5.09
- pIC50 (K562 [20]): 5.55
- pIC50 (MEG-01 [21]): 5.21
- pIC50 (cells [22]): 4.88

Compound: OCCNc1nc(NCCc2ccccc2)c2cnn(/C=C\c3ccccc3)c2n1
- Papp [23]: 2.6 ×10⁻⁶ cm/s
- solubility [4]: 0.4 µg/mL (≈ 0.999 µM)
- remaining at 1 h [5]: 84%
- pKi [24]: 5.62
- pKi [25]: 6.66
- pIC50 (K562 [17]): 5.64
- pIC50 (MEG-01 [18]): 4.89
- pIC50 (K562 [20]): 5.09
- pIC50 (MEG-01 [21]): 4.47

Compound: ClC(Cn1ncc2c(Nc3ccccc3)nc(SCCN3CCOCC3)nc21)c1ccccc1 (stereo not drawn)
- Papp [23]: 10 ×10⁻⁶ cm/s
- inhibition [9]: Active
- inhibition [10]: Active
- inhibition [11]: Active
- inhibition [12]: Active
- inhibition [15]: Active
- inhibition [16]: Active
- pIC50 (K562 [17]): 5.66
- pIC50 (K562 [20]): 5.33

Compound: Fc1ccc(CNc2ncnc3c2cnn3CC(Cl)c2ccc(F)cc2)cc1 (stereo not drawn)
- Papp [23]: 11 ×10⁻⁶ cm/s
- solubility [4]: < 0.04 µg/mL
- remaining at 1 h [5]: 82%

Compound: Fc1ccc(C(Cl)Cn2ncc3c(NCc4ccccn4)ncnc32)cc1 (stereo not drawn)
- pIC50 (K562 [17]): 4.43
- pIC50 (MEG-01 [18]): 4.62
- pIC50 (cells [19]): 4.39

Compound: ClC(Cn1ncc2c(NCCc3ccccc3)nc(SCCN3CCOCC3)nc21)c1ccccc1 (stereo not drawn)
- Ki [26]: Not Active

Compound: Clc1cccc(Nc2nc(SCCN3CCOCC3)nc3c2cnn3CC(Cl)c2ccccc2)c1 (stereo not drawn)
- solubility [4]: 0.1 µg/mL (≈ 0.189 µM)
- remaining at 1 h [5]: 95%
- inhibition [9]: Active
- inhibition [10]: Active
- inhibition [11]: Active
- inhibition [12]: Active
- inhibition [15]: Active
- inhibition [16]: Active
- pIC50 (K562 [17]): 5.35
- pIC50 (MEG-01 [18]): 5.21

Compound: CC(Cn1ncc2c(Nc3cccc(Cl)c3)ncnc21)c1ccccc1 (stereo not drawn)
- Papp [23]: 13.5 ×10⁻⁶ cm/s
- solubility [4]: < 0.04 µg/mL
- remaining at 1 h [5]: 75%

Compound: Clc1cccc(Nc2nc(N3CCOCC3)nc3c2cnn3CC(Cl)c2ccccc2)c1 (stereo not drawn)
- Activity (K562 [1]): Active
- Activity (K562 [2]): Active
- Activity (K562 [3]): Active
- inhibition (K562 [27]): Active
- inhibition (K562 [28]): Active
- Papp [23]: 14.8 ×10⁻⁶ cm/s
- solubility [4]: 0.13 µg/mL (≈ 0.277 µM)
- remaining at 1 h [5]: 90%
- inhibition [9]: Active
- inhibition [10]: Active
- inhibition [11]: Active
- inhibition [12]: Active
- Activity (K562 [14]): inactive
- inhibition [15]: Active
- inhibition [16]: Active
- pKi [24]: 5.12
- pKi [25]: 6.41
- pIC50 (K562 [17]): 4.91
- pIC50 (MEG-01 [18]): 5.11
- pIC50 (cells [19]): 5.66
- pIC50 (K562 [20]): 5.34
- pIC50 (MEG-01 [21]): 4.82
- pIC50 (cells [22]): 4.79

Compound: CS(=O)(=O)c1nc(NCc2ccccc2)c2cnn(CC(Cl)c3ccccc3)c2n1 (stereo not drawn)
- pIC50 (K562 [17]): 4.45
- pIC50 (MEG-01 [18]): 4.38
- pIC50 (cells [19]): 4.44

Compound: Fc1ccc(C(Cl)Cn2ncc3c(NCc4ccncc4)ncnc32)cc1 (stereo not drawn)
- pIC50 (K562 [17]): 4.44
- pIC50 (MEG-01 [18]): 4.43
- pIC50 (cells [19]): 4.25

Compound: Clc1ccc(C(Cl)Cn2ncc3c(NCc4ccncc4)ncnc32)cc1 (stereo not drawn)
- Papp [23]: 5.4 ×10⁻⁶ cm/s
- solubility [4]: 12.3 µg/mL (≈ 30.8 µM)
- remaining at 1 h [5]: 90%
- inhibition [9]: Active
- inhibition [10]: Active
- inhibition [11]: Active
- inhibition [12]: Active
- Activity (K562 [14]): inactive
- inhibition [15]: Active
- inhibition [16]: Active
- pKi [24]: 5.41
- pKi [25]: 6.18
- pIC50 (K562 [17]): 4.90
- pIC50 (MEG-01 [18]): 4.84
- pIC50 (cells [19]): 5.00
- pIC50 (K562 [20]): 4.69
- pIC50 (MEG-01 [21]): 4.36
- pIC50 (cells [22]): < 4.00

Compound: ClC(Cn1ncc2c(NCc3ccccc3)nc(SCCN3CCOCC3)nc21)c1ccccc1 (stereo not drawn)
- Papp [23]: 9.1 ×10⁻⁶ cm/s
- solubility [4]: 1.2 µg/mL (≈ 2.36 µM)
- remaining at 1 h [5]: 95%
- inhibition [9]: Active
- inhibition [10]: Active
- inhibition [11]: Active
- inhibition [12]: Active
- pKi [24]: 5.54
- pKi [25]: 7.05
- pIC50 (K562 [17]): 5.51
- pIC50 (MEG-01 [18]): 4.63
- pIC50 (K562 [20]): 5.29
- pIC50 (MEG-01 [21]): 4.71

Compound: Clc1ccc(C(Cl)Cn2ncc3c(NCc4ccccn4)ncnc32)cc1 (stereo not drawn)
- pIC50 (K562 [17]): 4.51
- pIC50 (MEG-01 [18]): 4.78
- pIC50 (cells [19]): 4.50
